This note sets out measurements from publication PMC11726150, “Pre‐ADMET studies of 5‐(3′,4′‐dihydroxyphenyl)‐γ‐valerolactone, the bioactive intestinal metabolite of proanthocyanidins” (Archiv Der Pharmazie, 2024).

Series [1] relates to P‐gp. The experiment in a line: Rhodamine‐123 uptake assay, induction (48 h), differentiated Caco2 cells. The settings on record: 2.5 to 10 µM, 48 h treatment. The format is cell-based, human. As for the experimental part: P‐gp modulation was determined in differentiated Caco2 cells by Rh‐123 uptake assay.^[ [49] ^] In brief, cells in the logarithmic growth phase with 70%–80% confluency were harvested and seeded at a density of 2 × 10^4/well of a 96‐well plate. Cells were allowed to grow for 21 days in a CO2 incubator changing the medium every other day.
After treatment, cells were washed with Hank's buffer and 200 μL of phenol, and serum‐free DMEM/F12 medium containing […] of Rh‐123 was added and cells were incubated for 90 min. The final steps were as described previously.

The target of the next series is T1, BCRP (Homo sapiens, UniProt Q9UNQ0).
T1 construct: performing the Rh‐123 uptake‐based efflux assay in the differentiated Caco2 cell line; endogenous in cells; host or cells: differentiated Caco2 cells (21 days)
T1 sequence (Q9UNQ0 1-655): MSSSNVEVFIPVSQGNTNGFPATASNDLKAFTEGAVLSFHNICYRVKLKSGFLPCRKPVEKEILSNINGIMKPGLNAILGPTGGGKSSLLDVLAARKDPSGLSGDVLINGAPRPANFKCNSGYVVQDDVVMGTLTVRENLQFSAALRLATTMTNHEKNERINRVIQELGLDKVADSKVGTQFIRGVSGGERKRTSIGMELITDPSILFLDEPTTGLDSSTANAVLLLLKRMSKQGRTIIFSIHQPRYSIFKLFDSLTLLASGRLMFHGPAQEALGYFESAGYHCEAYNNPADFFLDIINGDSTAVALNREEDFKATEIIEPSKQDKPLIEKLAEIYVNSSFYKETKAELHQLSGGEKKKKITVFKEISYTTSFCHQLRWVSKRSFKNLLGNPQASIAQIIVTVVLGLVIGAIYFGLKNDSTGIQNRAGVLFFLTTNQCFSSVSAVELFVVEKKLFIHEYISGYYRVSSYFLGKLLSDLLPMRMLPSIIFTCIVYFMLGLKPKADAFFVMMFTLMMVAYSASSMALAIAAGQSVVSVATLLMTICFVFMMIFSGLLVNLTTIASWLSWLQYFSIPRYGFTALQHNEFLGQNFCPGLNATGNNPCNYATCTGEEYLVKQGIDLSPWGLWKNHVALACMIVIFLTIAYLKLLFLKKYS
Description: Rhodamine‐123 uptake assay, cotreatment with elacridar, differentiated Caco2 cells. Type of series: cell-based. The conditions noted are these: at higher doses.

Series [2] in a line: In vitro transport study across 21‐day Caco2 monolayers. The format is in vitro ADME, human. The settings on record: human, Caco-2, Caco2 model, N = 4. As for the experimental part:
(§1) Caco2 cells between passage numbers 42–50 and MDCK cells between passage numbers 21–26 were used for transport studies; the assay was conducted as reported by Volpe^[ [33] ^] with slight modifications. Transport experiments were performed in 12‐well Transwell plates. Caco2 cells were seeded at a density of 60,000 cells/cm^2 and grown for 21 days, with change of media every 3 days, while MDCK cells were seeded at a density of 70,000 cells/cm^2 and grown for 5 days, changing the medium daily. The physiological and morphological formation of a confluent monolayer was evaluated by measuring the TEER value: Caco2 monolayers became confluent 1 week after seeding with TEER values greater than 450 Ω/cm^2, while MDCK monolayers became confluent 24 h after seeding with TEER values greater than 90 Ω/cm^2. Phenol red and serum‐free DMEM/F12 medium was used as transport buffer. For bidirectional transport, VL (50 μM) and control compound (propranolol and paclitaxel, 10 μM) were added to the apical side to determine apical to basolateral transport (A–B; absorptive direction) and to the basal side to determine basolateral to apical transport (B–A; secretory direction). The volume of the apical and basolateral chambers was 0.5 and 1.5 mL, respectively. Aliquots of 120 μL were taken from the basolateral (for A–B transport) or the apical (for B–A transport) chamber at 30, 60, 90, and 120 min. An equal volume was replaced with a transport buffer at every time point. At the beginning and at the end of the experiment, an aliquot was also taken from the apical or basolateral chamber for analysis of the drug. To determine the integrity of monolayers, TEER values were measured before and after the experiment. In addition, at the end of the experiment cells were collected and lysed to evaluate the compound intake. Briefly, cells were washed twice with cold PBS and 200 µL of cold MeOH was added to detach and lysate the cells; subsequently, cells were collected into lo‐bind Eppendorf and sonicated in ice for 10 min, then centrifuged for 15 min at 4°C at 14,000 rpm (Eppendorf Centrifuge 5430 R). The supernatant was collected and used for further analysis.
(§2) The apparent permeability P app (cm/s) of compounds was calculated from the following equation (Equation 1), while P app (cm/s) of the metabolites was calculated from the equation (Equation 2): (1) Papp=dQ/dt×1/C×1/A.
(§3) Equation (1) for calculating P app (cm/s) of tested reference compounds. (2) Papp=Metabolic cleareance/A.
(§4) Equation (2) for calculating P app (cm/s) of compound metabolites.
(§5) with Metabolic cleareance=Rate of metabolism/C and where dQ/dt is the rate of transport, C is the initial concentration in the donor compartment, and A is the surface area of the filter. To quantify the rate of transport, cumulative amounts of test compounds were plotted against time (min).
(§6) Efflux ratio was calculated using the following equation (Equation 3)^[ [48] ^]: (3) Efflux ratio=Papp(B−A)/Papp(A−B).
Background: Passage across Caco-2 layers is used to estimate intestinal permeability.

A further series has as its system Caco2 monolayers. Described as above. Type of series: in vitro ADME, human. The settings on record: Caco2 model, VL 50 μM dosed (VLS formed as metabolite), controls 10 μM, N = 4. As for the experimental part: as §1, §2, §3, §4, §5, §6
The target of series [3] is T2, P‐gp (Homo sapiens, UniProt P08183).
T2 construct: P‐gp modulation was determined in differentiated Caco2 cells by Rh‐123 uptake assay; endogenous in cells; host or cells: differentiated Caco2 cells (21 days)
T2 sequence (P08183 whole entry): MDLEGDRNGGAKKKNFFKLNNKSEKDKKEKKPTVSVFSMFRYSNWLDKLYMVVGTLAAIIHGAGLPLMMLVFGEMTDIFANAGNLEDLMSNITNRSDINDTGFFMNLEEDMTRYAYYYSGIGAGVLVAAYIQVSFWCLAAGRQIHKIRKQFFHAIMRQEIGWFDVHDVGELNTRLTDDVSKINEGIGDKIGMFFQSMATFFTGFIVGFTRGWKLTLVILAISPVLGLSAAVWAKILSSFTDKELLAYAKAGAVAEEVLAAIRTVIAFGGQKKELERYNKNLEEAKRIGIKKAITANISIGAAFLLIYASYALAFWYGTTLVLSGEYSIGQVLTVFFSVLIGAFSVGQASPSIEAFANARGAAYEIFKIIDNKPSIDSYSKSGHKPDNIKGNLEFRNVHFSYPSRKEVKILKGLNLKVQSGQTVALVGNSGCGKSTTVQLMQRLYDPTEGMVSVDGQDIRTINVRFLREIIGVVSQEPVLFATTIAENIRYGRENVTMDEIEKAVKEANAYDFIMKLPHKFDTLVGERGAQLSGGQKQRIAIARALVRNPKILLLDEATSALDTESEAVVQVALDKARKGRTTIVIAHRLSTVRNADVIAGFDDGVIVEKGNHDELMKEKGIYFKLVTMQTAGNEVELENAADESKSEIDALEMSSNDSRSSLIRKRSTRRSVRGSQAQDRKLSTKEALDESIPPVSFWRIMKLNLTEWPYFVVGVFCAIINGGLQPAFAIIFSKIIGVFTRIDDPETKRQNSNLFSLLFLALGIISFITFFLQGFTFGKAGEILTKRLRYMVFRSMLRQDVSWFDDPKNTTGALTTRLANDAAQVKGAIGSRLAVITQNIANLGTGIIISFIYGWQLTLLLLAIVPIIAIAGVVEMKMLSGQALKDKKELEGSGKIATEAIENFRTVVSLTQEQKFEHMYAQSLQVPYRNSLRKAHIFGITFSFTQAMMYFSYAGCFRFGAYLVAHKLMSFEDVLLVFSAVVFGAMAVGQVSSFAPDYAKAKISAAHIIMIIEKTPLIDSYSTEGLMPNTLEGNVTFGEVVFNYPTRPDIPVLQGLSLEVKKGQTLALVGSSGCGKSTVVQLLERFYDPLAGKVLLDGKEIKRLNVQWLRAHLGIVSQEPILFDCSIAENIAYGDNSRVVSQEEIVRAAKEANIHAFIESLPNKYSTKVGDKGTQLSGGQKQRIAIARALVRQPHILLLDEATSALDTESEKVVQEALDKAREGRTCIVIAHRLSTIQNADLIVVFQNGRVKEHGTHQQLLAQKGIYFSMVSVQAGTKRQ
The experiment in a line: Rhodamine‐123 uptake assay, inhibition, differentiated Caco2 cells. The format is cell-based. The conditions noted are these: VL initial concentration 50 and 25 µM, 90 min.
Description: To evaluate P‐gp inhibition on day 21, the medium was removed and 200 μL Hank's salt solution was added, the plate was then incubated for 40 min. […] After treatment cells were washed three times with ice‐cold PBS, and 200 μL of lysis buffer (0.1% Triton X 100 and 0.2 N NaOH) was added. The plate was kept on a shaker for 2 h at room temperature, and 100 μL of lysate was used to measure the Rh‐123 fluorescence at 485/529 nm. Further, 10 μL of lysate was taken in a separate 96‐well plate, and 190 μL Bradford reagent was added. The plate was shaken for 5–10 min, and absorbance was measured at 595 nm. Each sample was normalized by dividing the fluorescence of each sample by the total proteins present in the lysate.^[ [46] ^]

Series [4] in a line: In vitro transport study across 5‐day Wt‐MDCK monolayers. Type of series: in vitro ADME, canine. The settings on record: dog; Wt‐MDCK model; Papp(B−A)/Papp(A−B); N = 4; read-out: Efflux ratio (mean ± SD). The method, then:
as §1, §2, §3, §4, §5, §6

The next series has as its system Wt‐MDCK monolayers. The series is described as above. The format is in vitro ADME, canine. The conditions noted are these: Wt‐MDCK model, VL 50 μM dosed (VLS formed as metabolite), controls 10 μM, N = 4. As for the experimental part: as §1, §2, §3, §4, §5, §6

“And” between values parts separate entries of the source, which are not always exact repeats. Equal entries are not always repeated. Structures can show the parent of a compound that is named as a salt.

Regarding `O=C1CCC(Cc2ccc(O)c(OS(=O)(=O)O)c2)O1` (centres unmarked) [VLS, valerolactone sulfate], the “P‐gp induction” value in the series with P‐gp [1] is reported as “no significant data of P‐gp induction”. In addition, the “effect on BCRP efflux transporter” value on BCRP is “slightly activates the BCRP efflux transporter”. The Papp A→B at 120 min in series [2] (absorptive direction, VL 50 μM dosed (VLS formed as metabolite), controls 10 μM, read-out: P app A–B (mean ± SD)) came to 22.3 ×10⁻⁶ cm/s. For the same compound, the Papp B→A at 120 min in series [2] (secretory direction, VL 50 μM dosed (VLS formed as metabolite), controls 10 μM, read-out: P app B–A (mean ± SD)) worked out at 55.4 ×10⁻⁶ cm/s. The efflux ratio at 120 min in series [2] (Papp(B−A)/Papp(A−B), read-out: Efflux ratio (mean ± SD)) turned out to be 2.35 ± 0.341; in series [4], 0.843 ± 0.105. For the same compound, the “P app A–B (mean ± SD)” value in the series on Caco2 monolayers (absorptive direction) is 22.25 ×10⁻⁶ cm/s; in the series on Wt‐MDCK monolayers (absorptive direction), 17.33 ×10⁻⁶ cm/s and 173.3 ± 25 ×10⁻⁶ cm/s. The “P app B–A (mean ± SD)” value was 55.35 ×10⁻⁶ cm/s in the series with Caco2 monolayers (secretory direction) and 14.43 ×10⁻⁶ cm/s in the series with Wt‐MDCK monolayers (secretory direction). On P‐gp [3], the “Rh‐123 uptake in cotreatment with CsA 20 µM” value is “nonsignificant results”.
